Source: patent publication US11491162B2, “Combination of quinoline-4-carboxamides and benzonaphthyridine derivatives as antimalarial drug combination” (Merck Patent GmbH, priority 2018, dated 2022)
“And” between values parts separate entries of the source, which are not always exact repeats. Equal entries are not always repeated. Structures can show the parent of a compound that is named as a salt. Where two headings read alike, the source gives them in different places.

Tests used:
Caco-2 cells = experiment: In vitro permeability in Caco-2 cells; type: in vitro ADME; details: pH 7.4/7.4, Table 8
Protocol: (§1) Caco-2 cells are maintained in DMEM in an atmosphere of 8.5% CO2. For transport experiments 0.125×10^6 cells/well of are seeded on polycarbonate filter inserts and are allowed to grow and differentiate for 14±1 days before the cell monolayers are used for experiments. Drug transport experiments are carried out using a cocktail approach in a four-dimensional setting. […] […] The assays are performed in HBSS containing 25 mM HEPES (pH 7.4) in an atmosphere of 5% CO2 at 37° C. Prior to the study, the monolayers are washed in pre-warmed HBSS. At the start of the experiments pre-warmed HBSS containing the test items is added to the donor side of the monolayer and HBSS without test items is added to the receiver side. The plates are shaken at 150 rpm at 37° C. during the experiment. After 2 h the Transwell insert containing the monolayer is carefully removed and placed in a new plate and aliquots of both the receiver and donor sides were taken and diluted with an equal volume of acetonitrile containing the internal standard. The mixture is centrifuged and supernatant analyzed by LC-MS/MS. The apparent permeability coefficients (Papp) are calculated using the formula: Papp=[Vrec/(A×C0,donor)](dCrec/dt)×10^6 with dCrev/dt being the change in concentration in the receiver compartment with time, Vrec the volume of the sample in the receiver compartment, C0, donor the concentration in the donor compartment at time 0, and A the area of the compartment with the cells.

[1] = In vitro permeability in Caco-2 cells; type: in vitro ADME; details: human
Protocol: as §1

[2] = tested on: P. falciparum Pf3D7^0087/N9; experiment: In vivo SCID mouse model, oral therapeutic efficacy; design: species or system Plasmodium falciparum; details: for % control: day 7; for Activity: day 7 vs untreated control, succinate salt
Protocol: Compound efficacy was assessed against the Plasmodium falciparum strain Pf3D7^0087/N9 in vivo. Mice are infected intravenously with parasitized red blood cells on day 0. Experimental mice are generally treated at day 3, 4, 5, and 6 post-infection with an oral dose of the compound (single or 4-day oral dosing regimen) and are compared to an infected control group for reduction in parasitemia on day 7 (Maria Belen Jimenez-Díaz, Teresa Mulet, Sara Viera, Vanessa Gomez, Helen Garuti, Javier Ibanez, Angela Alvarez-Doval, Leonard D. Shultz, Antonio Martínez, Domingo Gargallo-Viola, and Inigo Angulo-Barturen, Improved Murine Model of Malaria Using Plasmodium falciparum Competent Strains and Non-Myelodepleted NOD-scid IL2Rgammanull Mice Engrafted with Human Erythrocytes, Antimicrob Agents Chemother. 2009, 53:4533).
PYRO and M1 were solubilized in a vehicle consisting of 70% Tween-80 and 30% ethanol, followed by a 10-fold dilution in H2O.

[3] = M1 4 × 0.2 MG/KG oral, SCID mice, Table 3
[4] = M1 4 × 0.4 MG/KG oral, SCID mice, Table 3
[5] = M1 4 × 0.6 MG/KG oral, SCID mice, Table 3
[6] = M1 4 × 1.2 MG/KG oral, SCID mice, Table 3
[7] = Table 4 entry 2: M1 4 × 1.2 mg/kg, PYRO 0 mg/kg, oral

Compound: O=C(NCCN1CCCC1)c1cc(-c2ccc(CN3CCOCC3)cc2)nc2ccc(F)cc12 [M1, 6-fluoro-2-(4-morpholin-4-ylmethyl-phenyl)-quinoline-4-carboxylic acid (2-pyrrolidin-1-yl-ethyl)amide succinate salt]
- PAPP (A-B) (Caco-2 cells; PYRO 0 μM): 2.00 10E−6 CM/S
- PAPP (B-A) (Caco-2 cells; PYRO 0.3 μM): 30.90 10E−6 CM/S
- PAPP (A-B) (Caco-2 cells; PYRO 100 μM): 19.3 10E−6 CM/S
- efflux ratio at 2 h, 1 μM ([1]; Caco-2, pH 7.4, PYRO 0 μM, pH 7.4/7.4, Table 8): 15.4
- efflux ratio at 2 h, 1 μM ([1]; Caco-2, pH 7.4, no P-gp inhibitor, pH 7.4/7.4, Table 7): 18.2
- recovery at 2 h, 1 μM ([1]; Caco-2, pH 7.4, no P-gp inhibitor, pH 7.4/7.4, Table 7, read-out: RECOVERY apical to basolateral (A-B)): 79.8%
- recovery at 2 h, 1 μM ([1]; Caco-2, pH 7.4, no P-gp inhibitor, pH 7.4/7.4, Table 7, read-out: RECOVERY basolateral to apical (B-A)): 65.4%
- recovery at 2 h, 1 μM ([1]; Caco-2, pH 7.4, with Cyclosporine A 10 μM, with Cyclosporine A 10 μM, pH 7.4/7.4, Table 7, read-out: RECOVERY apical to basolateral (A-B)): 72.5%
- recovery at 2 h, 1 μM ([1]; Caco-2, pH 7.4, with Cyclosporine A 10 μM, with Cyclosporine A 10 μM, pH 7.4/7.4, Table 7, read-out: RECOVERY basolateral to apical (B-A)): 86.3%
- efflux ratio at 2 h, 1 μM ([1]; Caco-2, pH 7.4, with PYRO 0.3 μM, PYRO 0.3 μM, pH 7.4/7.4, Table 8): 10.1
- efflux ratio at 2 h, 1 μM ([1]; Caco-2, pH 7.4, with PYRO 1 μM, PYRO 1 μM, pH 7.4/7.4, Table 8): 14.5
- efflux ratio at 2 h, 1 μM ([1]; Caco-2, pH 7.4, with PYRO 3 μM, PYRO 3 μM, pH 7.4/7.4, Table 8): 10.2
- efflux ratio at 2 h, 1 μM ([1]; Caco-2, pH 7.4, with PYRO 10 μM, PYRO 10 μM, pH 7.4/7.4, Table 8): 11
- efflux ratio at 2 h, 1 μM ([1]; Caco-2, pH 7.4, with PYRO 30 μM, PYRO 30 μM, pH 7.4/7.4, Table 8): 5.06
- efflux ratio at 2 h, 1 μM ([1]; Caco-2, pH 7.4, with PYRO 100 μM, PYRO 100 μM, pH 7.4/7.4, Table 8): 2.42
- Papp at 2 h, 1 μM ([1]; Caco-2, with PYRO 0.3 μM, PYRO 0.3 μM, pH 7.4/7.4, Table 8): 9.74 ×10⁻⁶ cm/s
- Papp A→B at 2 h, 1 μM ([1]; Caco-2, with PYRO 0.3 μM, PYRO 0.3 μM, pH 7.4/7.4, Table 8, read-out: PAPP (A-B)): 3.07 ×10⁻⁶ cm/s
- Papp at 2 h, 1 μM ([1]; Caco-2, with PYRO 1 μM, PYRO 1 μM, pH 7.4/7.4, Table 8): 8.25 ×10⁻⁶ cm/s
- Papp A→B at 2 h, 1 μM ([1]; Caco-2, with PYRO 1 μM, PYRO 1 μM, pH 7.4/7.4, Table 8, read-out: PAPP (A-B)): 2.17 ×10⁻⁶ cm/s
- Papp B→A at 2 h, 1 μM ([1]; Caco-2, with PYRO 1 μM, PYRO 1 μM, pH 7.4/7.4, Table 8, read-out: PAPP (B-A)): 31.4 ×10⁻⁶ cm/s
- Papp at 2 h, 1 μM ([1]; Caco-2, with PYRO 3 μM, PYRO 3 μM, pH 7.4/7.4, Table 8): 12.3 ×10⁻⁶ cm/s
- Papp A→B at 2 h, 1 μM ([1]; Caco-2, with PYRO 3 μM, PYRO 3 μM, pH 7.4/7.4, Table 8, read-out: PAPP (A-B)): 3.85 ×10⁻⁶ cm/s
- Papp B→A at 2 h, 1 μM ([1]; Caco-2, with PYRO 3 μM, PYRO 3 μM, pH 7.4/7.4, Table 8, read-out: PAPP (B-A)): 39.1 ×10⁻⁶ cm/s
- Papp at 2 h, 1 μM ([1]; Caco-2, with PYRO 10 μM, PYRO 10 μM, pH 7.4/7.4, Table 8): 11.3 ×10⁻⁶ cm/s
- Papp A→B at 2 h, 1 μM ([1]; Caco-2, with PYRO 10 μM, PYRO 10 μM, pH 7.4/7.4, Table 8, read-out: PAPP (A-B)): 3.42 ×10⁻⁶ cm/s
- Papp B→A at 2 h, 1 μM ([1]; Caco-2, with PYRO 10 μM, PYRO 10 μM, pH 7.4/7.4, Table 8, read-out: PAPP (B-A)): 37.6 ×10⁻⁶ cm/s
- Papp at 2 h, 1 μM ([1]; Caco-2, with PYRO 30 μM, PYRO 30 μM, pH 7.4/7.4, Table 8): 16.4 ×10⁻⁶ cm/s
- Papp A→B at 2 h, 1 μM ([1]; Caco-2, with PYRO 30 μM, PYRO 30 μM, pH 7.4/7.4, Table 8, read-out: PAPP (A-B)): 7.29 ×10⁻⁶ cm/s
- Papp B→A at 2 h, 1 μM ([1]; Caco-2, with PYRO 30 μM, PYRO 30 μM, pH 7.4/7.4, Table 8, read-out: PAPP (B-A)): 36.9 ×10⁻⁶ cm/s
- Papp at 2 h, 1 μM ([1]; Caco-2, with PYRO 100 μM, PYRO 100 μM, pH 7.4/7.4, Table 8): 30 ×10⁻⁶ cm/s
- Papp A→B at 2 h, 1 μM ([1]; Caco-2, with PYRO 100 μM, PYRO 100 μM, pH 7.4/7.4, Table 8, read-out: PAPP (A-B)): 19.3 ×10⁻⁶ cm/s
- Papp B→A at 2 h, 1 μM ([1]; Caco-2, with PYRO 100 μM, PYRO 100 μM, pH 7.4/7.4, Table 8, read-out: PAPP (B-A)): 46.7 ×10⁻⁶ cm/s
- Papp at 2 h, 1 μM ([1]; Caco-2, with none (PYRO 0 μM), PYRO 0 μM, pH 7.4/7.4, Table 8): 7.8 ×10⁻⁶ cm/s
- Papp A→B at 2 h, 1 μM ([1]; Caco-2, with none (PYRO 0 μM), PYRO 0 μM, pH 7.4/7.4, Table 8, read-out: PAPP (A-B)): 2 ×10⁻⁶ cm/s
- Papp B→A at 2 h, 1 μM ([1]; Caco-2, with none (PYRO 0 μM), PYRO 0 μM, pH 7.4/7.4, Table 8, read-out: PAPP (B-A)): 30.6 ×10⁻⁶ cm/s
- Papp A→B at 2 h, 1 μM ([1]; Caco-2, with none (no P-gp inhibitor), no P-gp inhibitor, pH 7.4/7.4, Table 7, read-out: PAPP apical to basolateral (A-B)): 2.97 ×10⁻⁶ cm/s
- Papp B→A at 2 h, 1 μM ([1]; Caco-2, with none (no P-gp inhibitor), no P-gp inhibitor, pH 7.4/7.4, Table 7, read-out: PAPP basolateral to apical (B-A)): 54.2 ×10⁻⁶ cm/s
- % PARASITEMIA day 3 post infection [2, 3]: 0.85%
- % PARASITEMIA day 4 post infection [2, 3]: 1.33%
- % PARASITEMIA day 5 post infection [2, 3]: 3.10%
- % PARASITEMIA day 6 post infection [2, 3]: 3.35%
- % PARASITEMIA day 7 post infection [2, 3]: 6.55%
- % control ([2]; M1 4 × 0.2 MG/KG oral, SCID mice): 71.7%
- Activity ([2]; M1 4 × 0.2 MG/KG oral, SCID mice, 0.2 mg/kg): 28.3%
- % PARASITEMIA day 3 post infection [2, 4]: 0.70%
- % PARASITEMIA day 4 post infection [2, 4]: 1.38%
- % PARASITEMIA day 5 post infection [2, 4]: 1.18%
- % PARASITEMIA day 6 post infection [2, 4]: 0.75%
- % PARASITEMIA day 7 post infection [2, 4]: 0.55%
- % control ([2]; M1 4 × 0.4 MG/KG oral, SCID mice): 6.0%
- Activity ([2]; M1 4 × 0.4 MG/KG oral, SCID mice, 0.4 mg/kg): 94.9% and 94.0%
- % PARASITEMIA day 3 post infection [2, 5]: 0.63%
- % PARASITEMIA day 4 post infection [2, 5]: 0.70%
- % PARASITEMIA day 5 post infection [2, 5]: 0.60%
- % PARASITEMIA day 6 post infection [2, 5]: 0.13%
- % PARASITEMIA day 7 post infection [2, 5]: 0.03%
- % control ([2]; M1 4 × 0.6 MG/KG oral, SCID mice): 0.3%
- Activity ([2]; M1 4 × 0.6 MG/KG oral, SCID mice, 0.6 mg/kg): 99.7%
- % PARASITEMIA day 3 post infection [2, 6]: 0.50%
- % PARASITEMIA day 4 post infection [2, 6]: 0.75%
- % PARASITEMIA day 5 post infection [2, 6]: 0.43%
- % PARASITEMIA day 6 post infection [2, 6]: 0.05%
- % PARASITEMIA day 7 post infection ([2]; M1 4 × 1.2 MG/KG oral, SCID mice, Table 3, LLQ = <0.01% parasitemia): <LLQ
- % control ([2]; M1 4 × 1.2 MG/KG oral, SCID mice, LLQ = <0.01% parasitemia): <LLQ
- Activity ([2]; M1 4 × 1.2 MG/KG oral, SCID mice, 1.2 mg/kg): 100%
- ED90 ([2]; M1, 4-day oral dosing, SCID mice, dose as free base): 0.37 mg/kg
- % PARASITEMIA day 3 post infection [2, 7]: 0.99%
- % PARASITEMIA day 4 post infection [2, 7]: 1.04%
- % PARASITEMIA day 5 post infection [2, 7]: 0.7%
- % PARASITEMIA day 6 post infection [2, 7]: 0.12%
- % PARASITEMIA day 7 post infection [2, 7]: 0.01%
- % PARASITEMIA day 10 post infection ([2]; Table 4 entry 2: M1 4 × 1.2 mg/kg, PYRO 0 mg/kg, oral, LLQ = <0.01% parasitemia): <LLQ
